1 compound from ChEMBL document CHEMBL5352388 (Eur J Med Chem, 2022) can be followed below.

Active and inactive are the calls of the source. The calls are words filed in the database; no cut-off is given here.

Data set [1] concerns HeLa. Description: Antiproliferative activity against human HeLa cells assessed as inhibition of cell growth incubated for 72 hrs by CCK-8 assay. Type of data set: functional, cell-based.
The nature of data set [2]: Half life in human liver microsomes measured upto 60 mins in presence of NADPH by LC/MS/MS analysis. Type of data set: ADME, Microsome.
The nature of data set [3]: Intrinsic clearance in human liver microsomes measured upto 60 mins in presence of NADPH by LC/MS/MS analysis. The note with it: read-out: CLH. Type of data set: ADME, Microsome.
A short description of data set [4]: Intrinsic clearance in human liver measured upto 60 mins in presence of NADPH by LC/MS/MS analysis. Type of data set: ADME, tissue-based. The note with it: read-out: CLH.
For data set [5], the target named is T1, CYP1A2 (Homo sapiens, UniProt P05177).
T1 sequence (P05177 whole entry): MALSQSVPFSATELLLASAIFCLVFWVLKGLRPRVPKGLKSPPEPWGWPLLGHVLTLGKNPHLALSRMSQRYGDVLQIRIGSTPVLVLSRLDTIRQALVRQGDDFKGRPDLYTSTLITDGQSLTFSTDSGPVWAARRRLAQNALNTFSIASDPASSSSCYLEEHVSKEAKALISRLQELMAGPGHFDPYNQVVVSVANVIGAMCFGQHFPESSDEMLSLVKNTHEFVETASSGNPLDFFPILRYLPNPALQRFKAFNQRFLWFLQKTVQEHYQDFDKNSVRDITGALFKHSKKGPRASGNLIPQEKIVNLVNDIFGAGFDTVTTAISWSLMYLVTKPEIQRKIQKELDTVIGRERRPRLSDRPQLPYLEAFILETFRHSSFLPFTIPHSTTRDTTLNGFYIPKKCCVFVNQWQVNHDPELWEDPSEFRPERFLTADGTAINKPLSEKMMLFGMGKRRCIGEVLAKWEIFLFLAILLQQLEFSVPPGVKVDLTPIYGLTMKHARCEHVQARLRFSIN
Description: Inhibition of CYP1A2 (unknown origin) at 10 uM incubated for 20 mins in presence of NADPH by LC/MS/MS analysis relative to control. Type of data set: ADME.

The target in data set [6] is CYP2C9 (Homo sapiens, UniProt P11712). Description: Inhibition of CYP2C9 (unknown origin) at 10 uM incubated for 20 mins in presence of NADPH by LC/MS/MS analysis relative to control. Type of data set: ADME.
Sequence of CYP2C9 (P11712 whole entry): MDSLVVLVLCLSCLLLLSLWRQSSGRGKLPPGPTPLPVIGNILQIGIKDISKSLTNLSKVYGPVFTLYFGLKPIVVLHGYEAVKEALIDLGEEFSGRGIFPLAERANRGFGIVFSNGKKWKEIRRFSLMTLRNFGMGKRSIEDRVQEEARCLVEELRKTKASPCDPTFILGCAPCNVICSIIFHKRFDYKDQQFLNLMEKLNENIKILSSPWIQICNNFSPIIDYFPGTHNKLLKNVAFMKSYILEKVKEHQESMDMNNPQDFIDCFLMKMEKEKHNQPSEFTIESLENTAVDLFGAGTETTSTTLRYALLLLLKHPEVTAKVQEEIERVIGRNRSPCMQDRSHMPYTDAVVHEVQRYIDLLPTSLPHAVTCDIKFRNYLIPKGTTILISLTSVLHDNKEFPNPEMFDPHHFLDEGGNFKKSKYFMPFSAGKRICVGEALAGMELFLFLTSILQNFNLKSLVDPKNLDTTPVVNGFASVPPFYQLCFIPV
Data set [7] has as its target CYP2C19 (Homo sapiens, UniProt P33261). Description: Inhibition of CYP2C19 (unknown origin) at 10 uM incubated for 20 mins in presence of NADPH by LC/MS/MS analysis relative to control. Type of data set: ADME.
Data set [8] concerns the target CYP2D6 (Homo sapiens, UniProt P10635). In words: Inhibition of CYP2D6 (unknown origin) at 10 uM incubated for 20 mins in presence of NADPH by LC/MS/MS analysis relative to control. Type of data set: ADME.
For data set [9], the target named is CYP3A4 (Homo sapiens, UniProt P08684). Description: Inhibition of CYP3A4 (unknown origin) at 10 uM incubated for 20 mins in presence of NADPH by LC/MS/MS analysis relative to control. The format is ADME.
Sequence of CYP3A4 (P08684 whole entry): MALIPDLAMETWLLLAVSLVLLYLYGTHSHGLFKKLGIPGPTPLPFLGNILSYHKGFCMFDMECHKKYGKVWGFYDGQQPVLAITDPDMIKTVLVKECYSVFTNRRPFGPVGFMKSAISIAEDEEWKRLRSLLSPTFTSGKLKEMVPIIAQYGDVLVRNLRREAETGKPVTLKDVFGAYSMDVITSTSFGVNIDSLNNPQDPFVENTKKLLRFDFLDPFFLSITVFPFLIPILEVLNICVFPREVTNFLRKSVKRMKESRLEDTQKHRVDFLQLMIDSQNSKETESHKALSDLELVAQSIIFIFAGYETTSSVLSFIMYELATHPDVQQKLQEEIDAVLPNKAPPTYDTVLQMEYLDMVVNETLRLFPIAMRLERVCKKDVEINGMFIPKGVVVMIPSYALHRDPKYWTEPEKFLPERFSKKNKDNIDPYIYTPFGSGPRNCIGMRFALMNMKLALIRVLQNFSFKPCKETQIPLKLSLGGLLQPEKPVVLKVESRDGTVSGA
In data set [10] the target is Voltage-gated inwardly rectifying potassium channel KCNH2 (Homo sapiens, UniProt Q12809). Description: Inhibition of human ERG stably expressed in CHO cells by patch clamp assay. The format is toxicity, cell-based.
Sequence of Voltage-gated inwardly rectifying potassium channel KCNH2 (Q12809 whole entry): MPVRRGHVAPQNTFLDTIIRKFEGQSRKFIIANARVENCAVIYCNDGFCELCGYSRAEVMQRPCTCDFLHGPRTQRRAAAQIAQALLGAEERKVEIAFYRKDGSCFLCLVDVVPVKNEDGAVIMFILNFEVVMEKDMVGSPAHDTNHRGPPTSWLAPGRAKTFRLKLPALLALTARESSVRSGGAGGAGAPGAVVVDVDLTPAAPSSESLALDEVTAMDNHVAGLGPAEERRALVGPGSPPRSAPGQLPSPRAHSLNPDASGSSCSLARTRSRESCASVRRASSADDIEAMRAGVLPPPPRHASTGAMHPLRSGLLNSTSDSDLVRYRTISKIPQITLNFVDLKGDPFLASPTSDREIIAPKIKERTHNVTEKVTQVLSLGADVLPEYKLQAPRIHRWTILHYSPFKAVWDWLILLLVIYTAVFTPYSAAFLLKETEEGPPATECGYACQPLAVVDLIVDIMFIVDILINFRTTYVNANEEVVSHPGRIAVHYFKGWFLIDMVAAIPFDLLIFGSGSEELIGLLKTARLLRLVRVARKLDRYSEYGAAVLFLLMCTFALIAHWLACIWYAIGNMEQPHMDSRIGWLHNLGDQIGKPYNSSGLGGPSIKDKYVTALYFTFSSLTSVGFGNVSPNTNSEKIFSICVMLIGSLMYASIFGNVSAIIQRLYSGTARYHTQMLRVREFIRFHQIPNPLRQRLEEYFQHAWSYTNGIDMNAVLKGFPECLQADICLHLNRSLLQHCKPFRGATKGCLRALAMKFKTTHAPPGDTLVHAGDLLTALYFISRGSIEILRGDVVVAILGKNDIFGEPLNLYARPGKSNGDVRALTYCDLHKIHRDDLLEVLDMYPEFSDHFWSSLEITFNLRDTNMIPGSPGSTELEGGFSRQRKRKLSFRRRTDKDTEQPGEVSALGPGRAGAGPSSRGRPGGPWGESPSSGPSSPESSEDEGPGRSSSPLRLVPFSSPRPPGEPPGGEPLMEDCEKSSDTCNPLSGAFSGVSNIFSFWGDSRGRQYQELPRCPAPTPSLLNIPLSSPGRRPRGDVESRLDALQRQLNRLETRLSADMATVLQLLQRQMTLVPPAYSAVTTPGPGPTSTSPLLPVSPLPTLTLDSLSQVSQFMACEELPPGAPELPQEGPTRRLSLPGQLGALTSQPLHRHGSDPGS
Data set [11] relates to A549. Description: Induction of apoptosis in human A549 cells at 4 uM incubated for 48 hrs by Annexin V-FITC/PI staining based flow cytometry method. Type of data set: functional.
The test system of data set [12] is A549. Description: Antitumor activity against human A549 cells xenografted in BALB/c mouse assessed as reduction in tumor growth at 10 mg/kg,ip administrated for 15 days. The note with it: time 15.0 day. Type of data set: functional, organism-based.
A short description of data set [13]: Toxicity in BALB/c mouse xenografted with human A549 cells assessed as change in body weight at 10 mg/kg,ip administrated for 15 days. The format is organism-based. The note with it: in vivo, 360 h, time 15 day.
In data set [14] the target is T2, Amine oxidase [flavin-containing] A (Homo sapiens, UniProt P21397).
T2 sequence (P21397 whole entry): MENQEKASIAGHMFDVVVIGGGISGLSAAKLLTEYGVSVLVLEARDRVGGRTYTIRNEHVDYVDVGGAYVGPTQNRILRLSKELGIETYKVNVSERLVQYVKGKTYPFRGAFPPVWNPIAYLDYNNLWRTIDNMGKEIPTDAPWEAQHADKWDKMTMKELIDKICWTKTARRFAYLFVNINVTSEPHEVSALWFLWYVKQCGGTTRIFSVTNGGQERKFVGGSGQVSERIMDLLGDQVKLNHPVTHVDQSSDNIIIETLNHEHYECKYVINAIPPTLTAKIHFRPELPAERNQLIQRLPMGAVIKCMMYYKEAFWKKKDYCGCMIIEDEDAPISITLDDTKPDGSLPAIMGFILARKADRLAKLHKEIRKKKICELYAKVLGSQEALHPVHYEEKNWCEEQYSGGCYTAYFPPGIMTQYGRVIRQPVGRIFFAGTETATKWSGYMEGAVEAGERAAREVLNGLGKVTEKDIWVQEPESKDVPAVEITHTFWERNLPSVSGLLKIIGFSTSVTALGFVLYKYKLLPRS
Description: Inhibition of recombinant MAO-A (unknown origin) incubated for 60 mins by luminescence based flow cytometry

Data set [15] deals with T3, Amine oxidase [flavin-containing] B (Homo sapiens, UniProt P27338).
T3 sequence (P27338 whole entry): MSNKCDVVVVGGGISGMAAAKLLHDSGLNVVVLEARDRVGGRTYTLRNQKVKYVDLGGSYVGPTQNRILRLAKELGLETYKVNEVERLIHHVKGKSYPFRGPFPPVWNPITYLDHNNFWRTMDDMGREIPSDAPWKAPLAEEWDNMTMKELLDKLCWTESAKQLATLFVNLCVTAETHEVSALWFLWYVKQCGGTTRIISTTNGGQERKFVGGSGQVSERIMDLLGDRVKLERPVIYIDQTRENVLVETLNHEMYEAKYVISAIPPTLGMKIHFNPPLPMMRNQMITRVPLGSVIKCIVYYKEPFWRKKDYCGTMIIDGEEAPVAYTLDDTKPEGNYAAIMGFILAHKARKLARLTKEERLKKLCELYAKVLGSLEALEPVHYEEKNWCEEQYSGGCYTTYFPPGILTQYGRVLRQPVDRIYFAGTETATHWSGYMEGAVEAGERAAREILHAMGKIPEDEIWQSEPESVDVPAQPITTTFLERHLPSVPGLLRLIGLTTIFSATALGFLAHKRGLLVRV
Description: Inhibition of recombinant MAO-B (unknown origin) incubated for 60 mins by luminescence based flow cytometry

Data set [16] has as its system A549. In words: cells. The following applies: Homo sapiens, A549, 72 h.
Description: Antiproliferative activity against human A549 cells assessed as inhibition of cell growth incubated for 72 hrs by CCK-8 assay
Data set [17] has as its system NCI-H460. In words: cells. The following applies: Homo sapiens, NCI-H460, 72 h.
Description: Antiproliferative activity against human NCI-H460 cells assessed as inhibition of cell growth incubated for 72 hrs by CCK-8 assay
The subject of data set [18] is MCF7. Description: cells. The note with it: Homo sapiens, MCF7, 72 h.
Description: Antiproliferative activity against human MCF7 cells assessed as inhibition of cell growth incubated for 72 hrs by CCK-8 assay
The subject of data set [19] is MGC-803. In words: cells. The following applies: Homo sapiens, MGC-803, 72 h.
Description: Antiproliferative activity against human MGC-803 cells assessed as inhibition of cell growth incubated for 72 hrs by CCK-8 assay
Data set [20] in a line: in vitro. The note with it: human, THLE-2 cells.
Description: Antiproliferative activity against human THLE-2 cells assessed as inhibition of cell growth incubated for 72 hrs by CCK-8 assay

Sequence of CYP2C19 (P33261 whole entry): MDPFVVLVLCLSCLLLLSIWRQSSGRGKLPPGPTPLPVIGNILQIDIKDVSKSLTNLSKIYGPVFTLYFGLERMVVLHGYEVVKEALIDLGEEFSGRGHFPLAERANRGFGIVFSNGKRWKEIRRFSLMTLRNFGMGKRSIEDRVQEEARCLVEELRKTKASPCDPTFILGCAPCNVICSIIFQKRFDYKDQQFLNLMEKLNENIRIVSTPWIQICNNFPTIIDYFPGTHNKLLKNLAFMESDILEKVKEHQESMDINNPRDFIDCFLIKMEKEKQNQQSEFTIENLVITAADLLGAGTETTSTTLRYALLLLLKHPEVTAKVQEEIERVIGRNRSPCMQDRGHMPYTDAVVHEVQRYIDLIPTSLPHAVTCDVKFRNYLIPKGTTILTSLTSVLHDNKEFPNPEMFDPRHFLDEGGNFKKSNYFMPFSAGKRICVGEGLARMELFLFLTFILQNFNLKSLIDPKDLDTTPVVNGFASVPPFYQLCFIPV
Sequence of CYP2D6 (P10635 whole entry): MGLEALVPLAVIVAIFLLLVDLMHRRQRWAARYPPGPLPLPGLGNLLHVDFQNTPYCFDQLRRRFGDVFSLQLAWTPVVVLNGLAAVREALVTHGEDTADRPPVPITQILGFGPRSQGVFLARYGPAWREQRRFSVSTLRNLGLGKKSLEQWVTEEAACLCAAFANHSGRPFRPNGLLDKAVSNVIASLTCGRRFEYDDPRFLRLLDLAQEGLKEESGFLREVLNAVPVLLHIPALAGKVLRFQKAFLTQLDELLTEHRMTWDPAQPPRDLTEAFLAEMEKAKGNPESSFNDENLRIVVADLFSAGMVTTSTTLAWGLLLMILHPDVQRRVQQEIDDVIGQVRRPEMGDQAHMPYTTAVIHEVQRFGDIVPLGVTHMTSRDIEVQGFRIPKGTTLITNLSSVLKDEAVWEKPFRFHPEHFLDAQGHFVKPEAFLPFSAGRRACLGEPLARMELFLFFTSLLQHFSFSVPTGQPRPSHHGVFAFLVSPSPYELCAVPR

On to `Cc1ccc(-c2cc3occ(CN4CCC[C@H](N)C4)c3cc2-c2ccc(C#N)cc2)cc1`, for which the IC50 in [1] is 10.2 µM; in data set [10], 6.06 µM; in [14] it was over 20 µM; in data set [15], over 20 µM; in data set [16] it was 3.6 µM; in data set [17] it was 4.8 µM. Moreover, the 50% inhibitory concentration (IC50) in [18] is 10.5 µM; in [19], 11.5 µM. The half-life in data set [2] was 56.6 min. The microsomal CLint in data set [3] was determined as 24.5 µL/min/mg. The CLint scaled in data set [4] was 22.1 mL/min/kg. Moreover, the inhibition at 20 min, 10 µM in data set [5] is 4.9%; in data set [6], 3.6%; in data set [7], 10.5%; in data set [8] it was 88.6%; in data set [9], 19%. Besides, the Activity in [11] is recorded as 20.94%; in data set [13], “Non-Toxic”. The result in [12] was Active. In data set [20], this compound displayed an IC50 at 72 h of 5.7 µM.
